Reference: patent publication US20130085064A1, “PESTICIDAL MIXTURES CONTAINING ISOXAZOLINE DERIVATIVES AND INSECTICIDE OR NEMATOICIDAL BIOLOGICAL AGENT” (priority 2010, published 2013)
“And” between values parts separate entries of the source, which are not always exact repeats. Equal values may be shown once. Read-outs that look alike come from different tables or passages of the source.

How the values were obtained:
Assay type in all cases: in vivo
[1] = tested on: Spodoptera littoralis (Egyptian cotton leaf worm); assay: Spodoptera littoralis larvicide L1, feeding/contact, cotton leaf discs; settings: single compound
Description: (§1) The action to be expected E for a given active ingredient combination obeys the so-called COLBY formula and can be calculated as follows (COLBY, S.R. “Calculating synergistic and antagonistic responses of herbicide combination”. Weeds, Vol. 15, pages 20-22; 1967):
(§2) ppm=milligrams of active ingredient (=a.i.) per liter of spray mixture X=% action by active ingredient A) using p ppm of active ingredient Y=% action by active ingredient B) using q ppm of active ingredient.
(§3) According to COLBY, the expected (additive) action of active ingredients A)+B) using p+q ppm of active ingredient is
(§4) If the action actually observed (O) is greater than the expected action (E), then the action of the combination is super-additive, i.e. there is a synergistic effect. In mathematical terms the synergism factor SF corresponds to O/E. In the agricultural practice an SF of ≧1.2 indicates significant improvement over the purely complementary addition of activities (expected activity), while an SF of ≦0.9 in the practical application routine signals a loss of activity compared to the expected activity.
Spodoptera Littoralis (Egyptian Cotton Leaf Worm)
(Larvicide L1, Feeding/Contact)
Cotton leaf discs are placed on agar in Petri dishes and sprayed with test solutions in an application chamber. After drying, the leaf discs are infested with 10 L1 larvae. The samples are checked for mortality 5 days after treatment. 3 replicates per treatment were evaluated. (1 PPM=1 mg l^−1)

[2] = tested on: Heliothis virescens (tobacco budworm); assay: Heliothis virescens ovo-larvicide, feeding/contact, eggs on filter paper in Petri dishes; settings: single compound, 7 days
Description: as §1, §2, §3, §4
Heliothis Virescens (Tobacco Budworm):
(Ovo-Larvicide, Feeding/Contact)
30-35 fresh eggs (0-24 h old), deposited on filter paper, are placed in Petri dishes on top of a layer of artificial diet and 0.8 ml of diluted test solutions are pipetted onto them. After an incubation period of 7 days, samples are checked for egg and larval mortality. 3 replicates per treatment were evaluated.

[3] = tested on: Heliothis virescens (tobacco budworm); assay: Heliothis virescens eggs in 24-well microtiter plate on artificial diet, larval mortality; settings: Heliothis virescens, 96 h, read-out: AVERAGE DEAD IN %
Outline: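 Eggs 0–24 h old on artificial diet were treated by pipetting test solutions in DMSO. Larval mortality scored after 4 days; combination effects assessed against Colby-expected action, with synergism factor = observed/expected.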

[4] = tested on: Tetranychus urticae (two spotted spider mite); assay: Tetranychus urticae contact/feeding activity on bean plants, adult mortality
Description: as §1, §2, §3, §4
Tetranychus Urticae (Two Spotted Spider Mite)
(Contact/Feeding Activity)
Bean plants are infested with mite populations of mixed ages. 1 day after infestation, plants are treated in a spray chamber with diluted test solutions. 1 and 8 days later, samples are checked for adult mortality. 2 replicates per treatment were evaluated.

[5] = tested on: Tetranychus urticae (two-spotted spider mite); assay: Tetranychus urticae bean leaf discs in 24-well microtiter plates, mixed population mortality; settings: 8 days
Description: as §1, §2, §3, §4
Tetranychus Urticae (Two-Spotted Spider Mite)
Bean leaf discs on agar in 24-well microtiter plates are sprayed with test solutions (DMSO). After drying, the leaf discs are infested with mite populations of mixed ages. 8 days later, discs are checked for mixed population mortality.

With `CN1COCN(Cc2cnc(Cl)s2)/C1=N\[N+](=O)[O-]` [Thiamethoxam, thiamethoxam] the “AVERAGE DEAD IN % AFTER 5 DAYS” value ([1]; 0.2 PPM AI) was 7% and 10%, the “AVERAGE DEAD IN % AFTER 5 DAYS” value ([1]; 0.2 ppm AI) was 10% and the “AVERAGE DEAD IN % AFTER 5 DAYS” value ([1]; 0.4 PPM AI) was 13%. For the same compound, the “AVERAGE DEAD IN % AFTER 5 DAYS” value ([1]; 0.4 ppm AI) was 13%, the “AVERAGE DEAD IN % AFTER 5 DAYS” value ([1]; 0.8 PPM AI) was 30% and the “AVERAGE DEAD IN % AFTER 5 DAYS” value ([1]; 0.8 ppm AI) was 30%. For the same compound, the “AVERAGE DEAD IN % (EGGS)” value ([2]; 100 ppm AI) was 0%, the “AVERAGE DEAD IN % (LARVAE)” value ([2]; 100 ppm AI) was 78% and the “AVERAGE DEAD IN % (EGGS)” value ([2]; 200 ppm AI) was 0%. For the same compound, the “AVERAGE DEAD IN % (LARVAE)” value ([2]; 200 ppm AI) was 80%, the pest or weed control at 6.25 ppm ([3]; Thiamethoxam alone 6.25 ppm AI) was 0% and the pest or weed control at 12.5 ppm ([3]; Thiamethoxam alone 12.5 ppm AI) was 0%. For the same compound, the pest or weed control at 25 ppm ([3]; Thiamethoxam alone 25 ppm AI) was 0%, the pest or weed control at 50 ppm ([3]; Thiamethoxam alone 50 ppm AI) was 0% and the pest or weed control at 100 ppm ([3]; Thiamethoxam alone 100 ppm AI) was 25%. The pest or weed control at 200 ppm ([3]; Thiamethoxam alone 200 ppm AI) was 65%, the pest or weed control at 6.25 ppm ([3]; single compound at 6.25 ppm AI) was 0% and the pest or weed control at 12.5 ppm ([3]; single compound at 12.5 ppm AI) was 0%. It also gave a pest or weed control at 25 ppm ([3]; single compound at 25 ppm AI) of 0%, a pest or weed control at 50 ppm ([3]; single compound at 50 ppm AI) of 0% and a pest or weed control at 100 ppm ([3]; single compound at 100 ppm AI) of 25%. For the same compound, the pest or weed control at 200 ppm ([3]; single compound at 200 ppm AI) was 65%, the “AVERAGE DEAD IN % AFTER 8 DAYS” value ([4]; 200 ppm alone) was 5% and the “AVERAGE DEAD IN % AFTER 1 DAY” value ([4]; Thiamethoxam alone 200 ppm AI) was 0%. For the same compound, the “AVERAGE DEAD IN %” value ([5]; 25 ppm alone) was 0%, the “AVERAGE DEAD IN %” value ([5]; 50 ppm alone) was 13% and the “AVERAGE DEAD IN %” value ([5]; 100 ppm alone) was 38%. For the same compound, the “AVERAGE DEAD IN %” value ([5]; 200 ppm alone) was 0%, the “AVERAGE DEAD IN %” value ([5]; 400 ppm alone) was 0% and the “AVERAGE DEAD IN %” value ([5]; 800 ppm alone) was 13%. The “AVERAGE DEAD IN %” value ([5]; Thiamethoxam alone, 25 ppm, Table 122) was 0%, the “AVERAGE DEAD IN %” value ([5]; Thiamethoxam alone, 50 ppm, Table 122) was 13% and the “AVERAGE DEAD IN %” value ([5]; Thiamethoxam alone, 100 ppm, Table 122) was 38%. The “AVERAGE DEAD IN %” value ([5]; Thiamethoxam alone, 200 ppm, Table 122) was 0%, the “AVERAGE DEAD IN %” value ([5]; Thiamethoxam alone, 400 ppm, Table 122) was 0% and the “AVERAGE DEAD IN %” value ([5]; Thiamethoxam alone, 800 ppm, Table 122) was 13%.
